In US9273276B2, “Devices and methods for pharmacokinetic-based cell culture system” (priority 2001, dated 2016):
Entries after “also recorded” stand apart in the source; their conditions may differ.

What was measured:
HCT-116 cells = test: Traditional in vitro cell culture assay, HCT-116 cells on poly-lysine treated glass coverslips; type: cell-based, human; conditions: for cell death of HCT-116 cells, traditional cell culture assay: coverslips, no liver cells, 48 hr exposure
Method: (§1) FIG. 16 Tegafur dose response. Chips were seeded with HepG2-C3A cells in the liver compartment and HCT-116 colon cancer cells in the target tissues compartment. The chips were treated with indicated concentrations of tegafur for 24 hours. The first graph (FIG. 16A) is a plot of percentage dead cells vs. tegafur or 5-FU concentration after 24 hours of re-circulation on the chip. The second graph (FIG. 16B) is a similar dose response using a traditional in vitro cell culture assay with HCT 116 cells using a 48 hour exposure. HCT-116 cells were seeded on poly-lysine treated glass coverslips and exposed to either tegafur or 5-FU at the indicated concentrations. After a 48 hr incubation, coverslips were treated as described above and the percentage of cell death was determined.
To measure the cytotoxic effects of tegafur against colon cancer cells, the microscale chip was prepared with HepG2-C3A cells in the liver compartment and HCT-116 human colon cancer cells in the target tissue compartment. Tegafur was added to the re-circulating medium at various concentrations for 24 hours and the cells labeled with Hoechst 33342, a membrane permeable DNA dye, and ethidium homodimer, a membrane impermeable DNA dye (see Methods Section).

[1] = system: HCT-116 human colon cancer cells; conditions: for cell death of HCT-116 cells on chip without liver compartment cells: chips seeded with HCT-116 cells only, no cells in liver compartment, 24 hours
Method: as §1, with “Chips were seeded with HepG2-C3A cells in the liver compartment and HCT-116 colon cancer cells in the target tissues compartment.” left out
(§2) LIVE/DEAD stain is a two-component stain consisting of calcein AM and ethidium homodimer. Living cells actively hydrolyze the acetoxymethyl ester (AM) moiety of calcein AM to produce bright green fluorescence of calcein. In contrast, cells that have compromised membrane integrity allow the normally membrane impermeant ethidium homodimer to stain the nucleus of dead or dying cells fluorescent red. The cell permeant nuclear stain, Hoechst 33342 acts as a general stain for all cells. Together with the appropriate filter sets, living cells fluoresce green, dying or dead cells red, and all cells are quantified by a blue nuclear fluorescence. For experiments described herein, trypan blue was used at 0.2% (w/v), calcein AM at 1:20,000, propidium iodide at 1:5,000, and Hoechst 33342 at 10 μg/ml. Cells were visualized with a M2Bio stereofluorescence microscope (Zeiss). All experiments were repeated at least three times and measurements done in triplicate.
[…] Tegafur was added to the re-circulating medium at various concentrations for 24 hours and the cells labeled with Hoechst 33342, a membrane permeable DNA dye, and ethidium homodimer, a membrane impermeable DNA dye (see Methods Section).

HCT116 cells [2] = test: LIVE/DEAD cytotoxicity assay on the microscale chip system (HepG2/C3A liver, HCT116 target tissues); type: cell-based, human; conditions: 1 μM, 24 hour treatment, compared to untreated control cell chips
Text: as §2
(§3) Two different assays to detect apoptosis were investigated. The first assay was the immunofluorescence-based terminal deoxynucleotidyl transferase BrdU nick end labeling (TUNEL) technique available in kit form as APOPTAG™ (Intergen Co., MA) (see Methods section).

HepG2/C3A cells [3] = test: LIVE/DEAD assay, HepG2/C3A cells on poly-D-lysine treated glass coverslips; type: cell-based, human; conditions: 1 μM, 24 hours
Text: as §2
The LIVE/DEAD assay was optimized (see Methods section) using cells grown on glass coverslips. Briefly, HepG2/C3A cells were seeded onto poly-D-lysine treated glass coverslips and treated with and without 1 μM staurosporine for 24 hours. […]

HCT116 cells [4] = test: APOPTAG (TUNEL) apoptosis assay on microscale chip (HepG2/C3A liver, HCT116 target tissues); type: cell-based, human; conditions: 1 μM, 24 hour exposure, compared to untreated controls
Text: (§4) In contrast to annexin V labeling, the APOPTAG™ kit (Intergen Co., MA) uses terminal deoxynucleotidyl transferase to label free 3′-OH DNA termini exposed during apoptotic DNA degradation and visualization using immunofluorescence (Li, X., Traganos, F., Melamed, M. R., and Darzynkiewicz, Z. (1995). Single-step procedure for labeling DNA strand breaks with flourescein- or BODIPY-conjugated deoxynucleotides: detection of apoptosis and bromodeoxyuridine incorporation. Cytometry 20, 172-180). Although this method is highly specific for apoptosis, the procedure cannot be done on-chip due to the fixation and incubation steps. Briefly, microscale chips were run under specified experimental conditions, the cell chips were removed from their housing units, fixed in 1% paraformaldehyde and processed with the APOPTAG™ kit using the manufacturer's protocol.
as §3, with “section). The assay was first optimized using cells grown on glass coverslips. Briefly, HepG2/C3A cells were seeded onto poly-D-lysine treated glass coverslips and treated with and without staurosporine. Coverslips were processed as described (see Methods section).” for “section).”

HepG2/C3A cells [5] = test: APOPTAG (TUNEL) apoptosis assay, HepG2/C3A cells on glass coverslips; type: cell-based, human; conditions: 1 μM, 24-hour incubation, compared to untreated controls
Text: as §4
as §3, with “section). The assay was first optimized using cells grown on glass coverslips. Briefly, HepG2/C3A cells were seeded onto poly-D-lysine treated glass coverslips and treated with and without staurosporine. Coverslips were processed as described (see Methods section).” for “section).”

[6] = system: HepG2/C3A cells in the liver compartment and HCT116 cells in the target tissues compartment; test: Annexin V-FITC apoptosis assay on microscale chip system; type: cell-based, human; conditions: 1 μM, 6-hour treatment, compared to untreated control cell chips
Method: With the microscale chip, annexin V-FITC labeling was visualized directly on-chip, by first flushing the system with PBS, then recirculating annexin V-FITC (10 μg/ml in annexin V binding buffer, Clontech) for 30 min. Cells were then visualized directly using a FITC filter set.
Briefly, the microscale chip cell chips were seeded with HepG2/C3A cells in the liver compartment and HCT116 cells in the target tissues compartment. Cell chips were loaded onto the microscale chip system and treated with and without 1 μM staurosporine as described above. After a 6-hour incubation, the re-circulating medium was switched to PBS containing Annexin V-FITC and Hoechst 33342 and allowed to flow through the system for 30 minutes. Cell chips were removed from the acrylic housing and visualized under a fluorescent microscope. Cells were visualized under a fluorescent microscope and fluorescent images of identical fields were obtained using the appropriate filter sets.

[7] = system: HT29 human colon cancer cells; test: Microscale chip, HepG2-C3A cells in liver compartment and HT29 cells in target tissue compartment, LIVE/DEAD staining; type: cell-based; conditions: 24 hours; for efficacy against HT-29 colon cancer cells on chip: HepG2-C3A cells in liver compartment, HT-29 cells with mutant p53
Text: as §2

Compound: O=c1[nH]cc(F)c(=O)[nH]1 [5-FU, 5-fluorouracil]
- exposure before cytotoxicity was observed, traditional cell culture assay (HCT-116 cells; HCT-116 cells on coverslips): ≥ 48 h
- cell death of HCT-116 cells, traditional cell culture assay (HCT-116 cells): triggered cell death
- cell death of HCT-116 cells on chip without liver compartment cells [1]: caused substantial cell death

Compound: CN[C@@H]1C[C@H]2O[C@@](C)([C@@H]1OC)n1c3ccccc3c3c4c(c5c6ccccc6n2c5c31)C(=O)NC4 [Staurosporine]
- cell death of HCT116 cells on chip (LIVE/DEAD) (HCT116 cells [2]): Significant cell death; also recorded: significant apoptosis (or cytotoxicity)
- cell death of HepG2/C3A cells (LIVE/DEAD) (HepG2/C3A cells [3]): clearly cause cell death
- apoptosis of HCT116 cells on chip (APOPTAG) (HCT116 cells [4]): significant apoptosis (or cytotoxicity)
- apoptosis of HepG2/C3A cells (APOPTAG) (HepG2/C3A cells [5]): caused significant apoptosis
- apoptosis on chip (annexin V-FITC) [6]: caused significant apoptosis

Compound: CC1=C(CC(=O)O)c2cc(F)ccc2/C1=C\c1ccc([S+](C)[O-])cc1 (centres unmarked) [Sulindac, sulindac sulfoxide]
- efficacy against HT-29 colon cancer cells on chip [7]: effective
- cell death of HT29 cells in target tissue compartment ([7]; One hundred micromoles, in the absence of the HepG2-C3A liver cells): minimal levels of cell death

Compound: O=c1[nH]c(=O)n(C2CCCO2)cc1F (centres unmarked) [Tegafur, 5-fluoro-1-(2-tetrahydrofuryl)-2,4(1H,3H)-pyrimidi-nedione]
- efficacy against HT-29 colon cancer cells on chip [7]: ineffective
- cell death of HCT-116 cells, traditional cell culture assay (HCT-116 cells): ineffective
- cytotoxicity to HCT-116 cells on chip [1]: cytotoxic to HCT-1-16-cells in a dose dependent fashion
- cell death of HCT-116 cells on chip without liver compartment cells [1]: did not cause significant cell death
